This is an account of results in patent US20240058450A1, “BCL-XL Inhibitory Compounds Having Low Cell Permeability and Antibody Drug Conjugates Including the Same” (AbbVie Inc., priority 2014, published 2024).

Test [1] deals with permeabilized Bcl-xL dependent Molt-4 cells. As to the kind of experiment: Cytochrome C release in selectively (digitonin) permeabilized Molt-4 cells. Conditions: 4 h treatment, read-out: Molt-4 Permeabilized Cyt C Release. Type of test: cell-based, human. An excerpt:
The permeabilization of the mitochondrial outer membrane to release proteins from the intermembrane space into the cytosol is a pivotal event in the process of apoptosis. Specifically, the release of cytochrome C triggers the formation of the apoptosome which, in turn, results in caspase activation and other events that will commit the cell to undergo programmed cell death (Goldstein el al., 2005, Cell Death and Differentiation 12:453). The process of mitochondrial outer membrane permeabilization (MOMP) is controlled by the Bcl-2 family members. It is promoted by the multidomain pro-apoptotic proteins Bax and Bak which, upon activation, oligomerize on the outer mitochondrial membrane and form pores to ultimately release cytochrome C. This action is antagonized by the antiapoptotic members, including Bcl-2 and Bcl-xL. Compounds that are capable of inhibiting Bcl-2 or Bcl-xL, for example, in cells that depend upon these proteins for survival, can cause activation of Bax and or Bak, MOMP, release of cytochrome C and the mentioned downstream steps in the apoptotic process. This process of cytochrome C release can be measured in cells via Western blot of both mitochrondrial and cytosolic fractions, and can be used a proxy measurement of apoptosis in cells.
As a means of detecting the ability of a Bcl-xL inhibitor with low cell-permeability to cause release of cytochrome C, the cells can be treated with an agent that causes selective pore formation in the plasma membrane, but not the mitochondrial membrane. Specifically, the cholesterol/phospholipid ratio is much higher in the plasma membrane than the mitochondrial membrane. […] This agent forms insoluble complexes with cholesterol leading to the segregation of cholesterol from its normal phospholipid binding sites. This action, in turn, leads to the formation of holes about 40-50 Å wide in the lipid bilayer. Once the plasma membrane is permeabilized, cytosolic components able to pass over digitonin-formed holes can be washed out, including the cytochrome C that was released from mitochondria to cytosol in the apoptotic cells ((Campos, 2006, Cytometry A 69(6):515-523)).
To determine if Bcl-xL inhibitors were inducing cell death through apoptosis, cytochrome C release was measured in Bcl-xL dependent Molt-4 cells following treatment Specifically, 1×10^6 cells were treated for 4 h (37° C., 5% CO2) with the test compounds in half-log dilutions starting at 3.0 μM and ending at 0.01 μM. Cells were then processed as described in Chen et al., 2011, Mol. Cancer Ther. 10:2340-2350 (the Bcl-2/Bcl-X(L)/Bcl-w inhibitor, navitoclax, enhances the activity of chemotherapeutic agents in vitro and in vivo.).

In the next test the target is Bcl-xL (Homo sapiens, UniProt Q07817). Description: Time Resolved-Fluorescence Resonance Energy Transfer (TR-FRET) binding assay, competition with probe F-Bak. An outline of the steps: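 TR-FRET binding assay run at room temperature for 2 h after mixing compound with Bcl-xL protein, F-Bak probe and Tb-labelled antibody. Test compounds diluted from a 2× 50 μM stock. Ki values derived via Wang's equation from 520/495 nm emission under 340 nm excitation, in the absence of serum or with 1% HS.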
Sequence of Bcl-xL (Q07817 whole entry): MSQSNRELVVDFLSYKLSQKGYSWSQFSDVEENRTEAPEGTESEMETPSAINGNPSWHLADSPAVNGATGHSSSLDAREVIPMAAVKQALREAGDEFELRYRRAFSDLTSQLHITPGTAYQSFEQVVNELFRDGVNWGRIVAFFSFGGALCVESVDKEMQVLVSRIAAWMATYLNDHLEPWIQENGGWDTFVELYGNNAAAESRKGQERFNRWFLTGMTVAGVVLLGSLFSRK
On the technique in general: TR-FRET usually uses a lanthanide donor and a delayed reading to cut background.

Test [2] has as its system Molt-4 human acute lymphoblastic leukemia cells. As to the kind of experiment: Molt-4 cell viability assay (CellTiter-Glo, 48 hours, 10% HS). It counts as cell-based. Conditions: non-permeabilized cells. An outline of the steps: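 Cells were seeded at 12,500 per well in medium with 10% human serum and exposed to a 3-fold compound dilution series from 10 μM to 0.0005 μM. After 48 h, viable cells were quantified by CellTiter-Glo luminescence. Each concentration was run in duplicate on at least 3 occasions.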
In general terms: ATP-based viability assays read luminescence as a measure of living cells.

[3] abbreviates: in the presence of 1% HS, read-out: Bcl-xL Binding Ki (nM, 1% HS).
Setting [4] is: without HS, read-out: Bcl-xL Binding Ki.

As a reminder, the Ki is a measure of affinity in units of concentration, obtained from inhibition or displacement.

Read-outs that look alike come from different tables or passages of the source.

As for `Cc1c(-c2ccc(N3CCc4cccc(C(=O)Nc5nc6ccccc6s5)c4C3)nc2C(=O)O)cnn1CC12CC3(C)CC(C)(C1)CC(OCCNCCCP(=O)(O)O)(C3)C2` [Example 1.14, 6-[8-(1,3-benzothiazol-2-ylcarbamoyl)-3,4-dihydroisoquinolin-2 (1H)-yl]-3-{1-[(3,5-dimethyl-7-{2-[(3-phosphonopropyl)amino]ethoxy)tricyclo[3.3.1.1^3,7]dec-1-yl)methyl]-5-methyl-1H-pyrazol-4-yl}pyridine-2-carboxylic acid], the EC50 in test [1] (Homo sapiens, MOLT-4, 4 h) was < 0.5 nM; in test [2] (Homo sapiens, MOLT-4, 48 h), 415 nM. For the same compound, the figures for the Ki on Bcl-xL (setting [3]) and on Bcl-xL (setting [4]) were 0.18 nM and < 0.001 nM, respectively.

On to `Cc1c(-c2ccc(-c3ccc4c(c3)N(C(=O)Nc3nc5ccccc5s3)CCC4)nc2C(=O)O)cnn1CC12CC3(C)CC(C)(C1)CC(OCCNCCP(=O)(O)O)(C3)C2` [Example 1.20, 6-[1-(1,3-benzothiazol-2-ylcarbamoyl)-1,2,3,4-tetrahydroquinolin-7-yl]-3-{1-[(3,5-dimethyl-7-(2-[(2-phosphonoethyl)amino]ethoxy}tricyclo[3.3.1.1^3,7]dec-1-yl)methyl]-5-methyl-1H-pyrazol-4-yl}pyridine-2-carboxylic acid], for which the EC50 in test [1] (Homo sapiens, MOLT-4, 4 h) is < 0.5 nM; in test [2] (Homo sapiens, MOLT-4, 48 h), 774 nM. The Ki is 0.47 nM at Bcl-xL (setting [3]) and < 0.001 nM on Bcl-xL (setting [4]).

With `Cc1c(-c2ccc(N3CCc4cccc(C(=O)Nc5nc6ccccc6s5)c4C3)nc2C(=O)O)cnn1CC12CC3(C)CC(C)(C1)CC(OCCNCCP(=O)(O)O)(C3)C2` [Example 1.12, 6-[8-(1,3-benzothiazol-2-ylcarbamoyl)-3,4-dihydroisoquinolin-2 (1H)-yl]-3-{1-[(3,5-dimethyl-7-{2-[(2-phosphonoethyl)amino]ethoxy}tricyclo[3.3.1.1^3,7]dec-1-yl)methyl]-5-methyl-1H-pyrazol-4-yl}pyridine-2-carboxylic acid], the EC50 in test [1] (Homo sapiens, MOLT-4, 4 h) is < 0.5 nM; in test [2] (Homo sapiens, MOLT-4, 48 h), 389 nM. In addition, the Ki at Bcl-xL (setting [3]) was 0.08 nM; on Bcl-xL (setting [4]), < 0.001 nM.

Take `Cc1c(-c2ccc(N3CCc4cccc(C(=O)Nc5nc6ccccc6s5)c4C3)nc2C(=O)O)cnn1CC12CC3(C)CC(C)(C1)CC(OCCOCCNCCS(=O)(=O)O)(C3)C2` [Example 1.11, 6-[8-(1,3-benzothiazol-2-ylcarbamoyl)-3,4-dihydroisoquinolin-2 (1H)-yl]-3-(1-{[3,5-dimethyl-7-(2-{2-[(2-sulfoethyl)amino]ethoxy}ethoxy)tricyclo[3.3.1.1^3,7]dec-1-yl]methyl}-5-methyl-1H-pyrazol-4-yl}pyridine-2-carboxylic acid]: the EC50 in test [1] (Homo sapiens, MOLT-4, 4 h) is < 0.5 nM; in test [2] (Homo sapiens, MOLT-4, 48 h), 63 nM. Besides, the Ki on Bcl-xL (setting [3]) was 0.17 nM; on Bcl-xL (setting [4]) it was < 0.001 nM.

Turning to `Cc1c(-c2ccc(N3CCc4cccc(C(=O)Nc5nc6ccccc6s5)c4C3)nc2C(=O)O)cnn1CC12CC3(C)CC(C)(C1)CC(OCCN(C)C(=O)[C@@H](N)CS(=O)(=O)O)(C3)C2` [Example 1.13, 6-[8-(1,3-benzothiazol-2-ylcarbamoyl)-3,4-dihydroisoquinolin-2 (1H)-yl]-3-{1-[(3,5-dimethyl-7-{2-[methyl(3-sulfo-L-alanyl)amino]ethoxy}tricyclo[3.3.1.1^3,7]dec-1-yl)methyl]-5-methyl-1H-pyrazol-4-yl}pyridine-2-carboxylic acid], the EC50 in test [1] (Homo sapiens, MOLT-4, 4 h) is < 0.5 nM; in test [2] (Homo sapiens, MOLT-4, 48 h), 257 nM. For the same compound, the Ki at Bcl-xL (setting [3]) is 0.2 nM; on Bcl-xL (setting [4]), < 0.001 nM.

Regarding `Cc1c(-c2ccc(N3CCc4cccc(C(=O)Nc5nc6ccccc6s5)c4C3)nc2C(=O)O)cnn1CC12CC3(C)CC(C)(C1)CC(OCCNCCC(=O)O)(C3)C2` [Example 1.25, 6-[8-(1,3-benzothiazol-2-ylcarbamoyl)-3,4-dihydroisoquinolin-2 (1H)-yl]-3-{1-[(3-{2-[(2-carboxyethyl)amino]ethoxy}-5,7-dimethyltricyclo[3.3.1.1^3,7]dec-1-yl)methyl]-5-methyl-1H-pyrazol-4-yl)pyridine-2-carboxylic acid], the EC50 was < 0.5 nM in test [1] (Homo sapiens, MOLT-4, 4 h) and 430 nM in test [2] (Homo sapiens, MOLT-4, 48 h). Besides, the Ki on Bcl-xL (setting [3]) is 0.083 nM; on Bcl-xL (setting [4]), < 0.001 nM.

For `Cc1c(-c2ccc(N3CCc4cccc(C(=O)Nc5nc6ccccc6s5)c4C3)nc2C(=O)O)cnn1CC12CC3(C)CC(C)(C1)CC(OCCN(CCNCCC(=O)O)CCS(=O)(=O)O)(C3)C2` [Example 1.38, 6-[8-(1,3-benzothiazol-2-ylcarbamoyl)-3,4-dihydroisoquinolin-2 (1H)-yl]-3-{1-[(3-{2-[{2-[(2-carboxyethyl)amino]ethyl}(2-sulfoethyl)amino]ethoxy}-5,7-dimethyltricyclo[3.3.1.1^3,7]dec-1-yl)methyl]-5-methyl-1H-pyrazol-4-yl}pyridine-2-carboxylic acid], the EC50 in test [1] (Homo sapiens, MOLT-4, 4 h) was < 0.5 nM; in test [2] (Homo sapiens, MOLT-4, 48 h), 245 nM. Further, the Ki at Bcl-xL (setting [3]) was 0.203 nM; at Bcl-xL (setting [4]), < 0.001 nM.

Regarding `Cc1c(-c2ccc(N3CCc4c(OCCNCCS(=O)(=O)O)ccc(C(=O)Nc5nc6ccccc6s5)c4C3)nc2C(=O)O)cnn1CC12CC3(C)CC(C)(C1)CC(OCCN(C)CCS(=O)(=O)O)(C3)C2` [Example 1.47, 6-[8-(1,3-benzothiazol-2-ylcarbamoyl)-5-{2-[(2-sulfoethyl)amino]ethoxy}-3,4-dihydroisoquinolin-2 (1H)-yl]-3-{1-[(3,5-dimethyl-7-{2-[methyl(2-sulfoethyl)amino]ethoxy}tricyclo[3.3.1.1^3,7]dec-1-yl)methyl]-5-methyl-1H-pyrazol-4-yl}pyridine-2-carboxylic acid], the EC50 in test [1] (Homo sapiens, MOLT-4, 4 h) is < 0.5 nM; in test [2] (Homo sapiens, MOLT-4, 48 h), 197 nM. The results for the Ki on Bcl-xL (setting [3]) and on Bcl-xL (setting [4]) were 0.0294 nM and 0.006 nM, respectively.

In the case of `Cc1c(-c2ccc(N3CCc4cccc(C(=O)Nc5nc6ccccc6s5)c4C3)nc2C(=O)O)cnn1CC12CC3(C)CC(C)(C1)CC(OCCN(CCS(=O)(=O)O)C(=O)[C@@H](N)CC(=O)O)(C3)C2` [Example 1.44, 3-{1-[(3-{2-[L-alpha-aspartyl(2-sulfoethyl)amino]ethoxy}-5,7-dimethyltricyclo[3.3.1.1^3,7]dec-1-yl)methyl]-5-methyl-1H-pyrazol-4-yl}-6-[8-(1,3-benzothiazol-2-ylcarbamoyl)-3,4-dihydroisoquinolin-2 (1H)-yl]pyridine-2-carboxylic acid], the EC50 in test [1] (Homo sapiens, MOLT-4, 4 h) was < 0.5 nM; in test [2] (Homo sapiens, MOLT-4, 48 h), 1260 nM. In addition, the Ki is 0.282 nM on Bcl-xL (setting [3]) and < 0.001 nM on Bcl-xL (setting [4]).

In the case of `Cc1c(-c2ccc(N3CCc4cccc(C(=O)Nc5nc6ccccc6s5)c4C3)nc2C(=O)O)cnn1CC12CC3(C)CC(C)(C1)CC(OCCN(C)C(=O)[C@@H](N)CCCC[N+](C)(C)C)(C3)C2` [Example 1.29, N-[(5S)-5-amino-6-{[2-({3-[(4-{6-[8-(1,3-benzothiazol-2-ylcarbamoyl)-3,4-dihydroisoquinolin-2 (1H)-yl]-2-carboxypyridin-3-yl}-5-methyl-1H-pyrazol-1-yl)methyl]-5,7-dimethyltricyclo[3.3.1.1^3,7]dec-1-yl}oxy)ethyl](methyl)amino}-6-oxohexyl]-N,N-dimethylmethanaminium], the EC50 in test [1] is < 0.5 nM; in test [2], 935 nM. The figures for the Ki on Bcl-xL (setting [3]) and at Bcl-xL (setting [4]) were 0.033 nM and 0.009 nM, respectively.
